Source: patent publication US10226044B2, “Agricultural and horticultural composition and method for cultivating plant” (AJINOMOTO CO., INC., priority 2014, dated 2019)
Like-named read-outs stand apart in the source and are kept apart here.

How the values were obtained:
[1] = test system: cherry tomato (Micro-Tom); experiment: Sprinkling of Ile on cherry tomato (Micro-Tom): blooming, appearance, ripening and number of fruit; type: in vivo
Description: Three seeds of cherry tomato (Micro-Tom) were shown in compost contained in a slit pot (upper diameter 10.5 cm×height 8.8 cm), and cultivated in a biotron at a temperature of 23° C. with a light period of 14 hours (6:00 to 20:00) and dark period of 10 hours (20:00 to 6:00). As the compost, a mixture of Kumiai Nippi Engei Baido No. 1 (Nihon Hiryo) and vermiculite at a ratio of 3:1 (volume ratio) was used. After 3 weeks, one root clump was left, and the others were thinned out. From one month after the sowing to harvest, a 300-fold diluted solution of Hyponex liquid fertilizer (N:P:K=6:10:5, Hyponex Japan) was additionally applied as soil fertilizer by irrigation at a frequency of once a week in a volume of 100 mL per one root clump (pot). After the plants of five root clumps uniformly grew, and flower buds began to appear, water (Control, or Con) or 10 mM L-isoleucine aqueous solution (Ile) was sprinkled on the whole plants once a week. The sprinkled volume was 5 mL per one root clump. Then, the blooming, appearance of fruit, ripening of the fruit, and number of fruit produced were investigated for each root clump.

[2] = test system: cherry tomato (Suncherry Pure); type: in vivo; conditions: 10 mM sprinkled once a week
Description: Three seeds of cherry tomato (Suncherry Pure, Tokita Seed) were shown in compost contained in a slit pot, and cultivated in the same manner as described in Example 1, provided that the cultivation was performed in a greenhouse as in Example 2. The compost and application of fertilizer were the same or performed in the same manner as those described in Example 1. One month after the sowing, each seedling was permanently planted in a 9.0-cm long pot (top diameter 9 cm, height 20 cm, bottom diameter 6.4 cm), and cultivated until harvest. As for application of fertilizer, a 200-fold diluted solution of Vegetable Life A (Otsuka Chemical) was additionally applied as a fertilizer by irrigation in a volume of 100 mL per one root clump (pot) every two days from one month after the sowing to the harvest. After the plants of four root clumps uniformly grew, and flower buds began to appear, water (Con.), 10 mM L-isoleucine aqueous solution (Ile), or 10 mM proline aqueous solution (Pro) was sprinkled on the whole plants once a week. The sprinkled volume was adjusted in accordance with the growth of the plants, and it was 15 to 30 mL per one root clump. Then, ripening of fruit, number of fruit, amino acid content of fruit juice, sugar content and acidity of fruit juice, and antioxidant capacity of fruit juice were investigated for each root clump.

[3] = test system: cherry tomato (Suncherry Pure); experiment: Sugar content and acidity analysis of tomato fruit juice; type: in vivo; conditions: 10 mM sprinkled once a week
Description: After the plants of four root clumps uniformly grew, and flower buds began to appear, water (Con.), 10 mM L-isoleucine aqueous solution (Ile), or 10 mM proline aqueous solution (Pro) was sprinkled on the whole plants once a week. The sprinkled volume was adjusted in accordance with the growth of the plants, and it was 15 to 30 mL per one root clump.
Mature tomato fruit were taken from cherry tomato plants of each experimental group in the same manner as described in iii) above, and fruit juice was pressed out from each fruit. Glucose content, fructose content, and acidity of each fruit juice extract were analyzed. Analysis of glucose and fructose was performed for a 20-fold diluted solution of fruit juice by using a food analysis reagent kit, F-Kit (Saccharose (Sucrose)/D-Glucose/D-Fructose Kit (Roche)) and DU800 Spectrophotometer (Beckman Coulter) according to the manuals of the kit and instrument. Acidity analysis was performed by using a pocket acidity meter (PAL-AC1, ATAGO).

LOX and Psy genes = experiment: Gene expression in pepper (Anaheim) sprinkled with Ile; type: in vivo; conditions: 10 mM Ile once a week, compared to Con.
Description: A 10 mM isoleucine aqueous solution (Ile) was sprinkled on pepper plants (variety, Anaheim), which also belong to the family Solanaceae, like tomato, and gene expression analysis was performed. The pepper plants were cultivated in a greenhouse in the same manner as described in Example 2. Ile was sprinkled once a week, and after the second sprinkling, leaves were collected from the pepper plants. RNA extraction, cDNA synthesis, and real-time PCR were performed in the same manner as described in Example 5 to analyze gene expression. Expression of the LOX gene was analyzed by using leaves collected 3 hours after the second sprinkling, and expression of the Psy gene was analyzed by using leaves collected 24 hours after the second sprinkling.

[4] = test system: grape (Cabernet Sauvignon); experiment: Anthocyanin content of pericarp of grape bunches sprinkled with isoleucine; type: in vivo; conditions: 10 mM isoleucine + 0.1% Applauch BI, 6.25 mL per bunch; Cabernet Sauvignon after start of veraison
Description: For the test, Cabernet Sauvignon plants that had been cultivated in a test cultivation field and had begun veraison were used. Eight bunches of fruit of the grape were collected from each of two root clumps, i.e., total 16 bunches of fruit were collected, and 6.25 mL per bunch of 0.1% Applauch BI (Kao, control), 1 g/L of abscisic acid (ABA)+0.1% Applauch BI (positive control), or 10 mM isoleucine+0.1% Applauch BI were sprinkled on them. The samples were collected 4 times, and they were collected from 4 bunches for each time. Anthocyanin contained in pericarp was extracted with a mixed solution of water and acetone (1:2) from pericarp, and anthocyanin content was measured in the same manner as described above.

[5] = cited from earlier work
[6] = 10 mM, once a week, compared to control

CC[C@H](C)[C@H](N)C(=O)O [Ile, L-isoleucine]
Blooming and appearance of the fruit ([1]; 10 mM L-isoleucine sprinkled on whole plants once a week, 5 mL per root clump, compared to water (Con)): occurred sooner | Ripening of the tomatoes (fruit turned orange or red) [1, 6]: began earlier | number of colored tomatoes at the same time point [1, 6]: larger | numbers of blooms and fruit ([1]; 10 mM, once a week, compared to water (Con)): larger | number of harvested tomatoes, larger as compared to control ([1]; 10 mM, once a week, harvest on the 82nd day after sowing): 20% | final crop yield: number of fruit produced, larger as compared to water (Con.) [2]: 16% | number of tomatoes that had changed color [2]: larger in the order of the tomato plants sprinkled with Ile, Pro, and water (Con.) | glucose content and fructose content of the fruit, comparison of groups [3]: almost the same as those of the control | Acidity ([3]; fruit juice of mature fruit): 0.46% | Fructose ([3]; fruit juice of mature fruit): 13.3 g/L | Glucose ([3]; fruit juice of mature fruit): 13.3 g/L | Expression of the LOX gene (LOX and Psy genes; leaves 3 hours after the second sprinkling): higher | Expression of the Psy gene (LOX and Psy genes; leaves 24 hours after the second sprinkling): higher | anthocyanin content of pericarp [4]: increases | solubility of isoleucine in water ([5]; 20° C.): 40.2 mg/mL | solubility of isoleucine in water [5]: about 0.3 M
